Experimental data published in ChEMBL document CHEMBL1201862, “PubChem BioAssay data set” (2004).
Activity calls are given as the source filed them. Cut-off read from the data, not from the text of the source: actives have a measured IC50 and inactives only a lower limit.

Biological target: Envelope glycoprotein gp160 (Human immunodeficiency virus 1, UniProt Q6QLK5)
Assay: cell-free HIV fusion peptide-binding blockers – biochemical, uHTS, fluorescence dequenching, […] (AID 1986)

Chain of Envelope glycoprotein gp160 (Q6QLK5 whole entry, the tested form may be a part): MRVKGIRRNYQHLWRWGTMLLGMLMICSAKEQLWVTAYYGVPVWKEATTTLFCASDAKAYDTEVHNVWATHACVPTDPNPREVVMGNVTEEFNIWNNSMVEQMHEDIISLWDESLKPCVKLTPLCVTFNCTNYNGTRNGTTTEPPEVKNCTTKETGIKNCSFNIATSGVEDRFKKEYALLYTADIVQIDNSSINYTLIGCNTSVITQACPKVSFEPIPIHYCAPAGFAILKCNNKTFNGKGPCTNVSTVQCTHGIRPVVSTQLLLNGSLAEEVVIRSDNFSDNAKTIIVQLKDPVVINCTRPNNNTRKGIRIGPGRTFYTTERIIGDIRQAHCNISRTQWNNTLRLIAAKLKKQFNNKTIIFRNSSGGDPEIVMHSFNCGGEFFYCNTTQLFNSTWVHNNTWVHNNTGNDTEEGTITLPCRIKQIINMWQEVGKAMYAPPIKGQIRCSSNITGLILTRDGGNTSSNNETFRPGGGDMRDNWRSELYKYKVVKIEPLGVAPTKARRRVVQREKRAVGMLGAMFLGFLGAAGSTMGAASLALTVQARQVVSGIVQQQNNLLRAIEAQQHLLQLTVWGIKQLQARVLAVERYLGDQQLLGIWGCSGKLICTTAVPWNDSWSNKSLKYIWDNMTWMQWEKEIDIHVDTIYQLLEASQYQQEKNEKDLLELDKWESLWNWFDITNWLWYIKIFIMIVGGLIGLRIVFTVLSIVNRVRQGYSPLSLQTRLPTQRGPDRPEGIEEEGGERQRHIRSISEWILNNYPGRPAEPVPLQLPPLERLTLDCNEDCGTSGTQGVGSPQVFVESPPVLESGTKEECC

O=C(O)c1ccc(N/N=C/c2ccc(-c3cccc(Cl)c3)o2)cc1
IC50: 22.2 µM (active)

CCOc1cc(/C=N/Nc2cccc(C(=O)O)c2)ccc1OC(=O)c1ccccc1
IC50: 23.4 µM (active)

CCc1nnc(NS(=O)(=O)c2ccc(NC(=S)NC(=O)/C=C/c3ccc(C(C)C)cc3)cc2)s1
IC50: 12.1 µM (active)
